According to patent US4698306A, “Process for producing peroxidase” (Takara Shuzo Co., Ltd., priority 1984, dated 1987):
Like-named read-outs stand apart in the source and are kept apart here.

What was measured:
peroxidase [1] = molecular target: T1, peroxidase (Coprinopsis cinerea, UniProt P28314); assay: Effects of inhibitors, metal ions and metal chelating agents on peroxidase activity; type: biochemical, Coprinus macrorhizus K-1330; conditions: for activity at 1000 µM / Relative activity: 1 min; for activity at 1000 µM: read-out: Relative activity; for Relative activity: peroxidase, 1000 µM
T1 sequence (P28314 21-363): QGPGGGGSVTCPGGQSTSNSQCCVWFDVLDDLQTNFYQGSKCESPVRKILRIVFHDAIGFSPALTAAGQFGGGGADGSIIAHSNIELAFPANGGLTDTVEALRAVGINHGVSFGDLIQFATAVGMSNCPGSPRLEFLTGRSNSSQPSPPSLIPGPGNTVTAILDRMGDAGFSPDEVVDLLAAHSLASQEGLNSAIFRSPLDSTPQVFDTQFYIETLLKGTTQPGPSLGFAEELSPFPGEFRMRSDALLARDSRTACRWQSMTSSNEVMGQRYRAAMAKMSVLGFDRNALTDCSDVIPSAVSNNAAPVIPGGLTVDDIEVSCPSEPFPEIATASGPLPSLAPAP

peroxidase [2] = molecular target: T1, peroxidase; assay: Specificity for hydrogen donors prepared by combining 4-AA with various compounds; type: biochemical, Coprinus macrorhizus K-1330; conditions: hydrogen donor combined with 4-AA, phenol = 100
peroxidase [3] = molecular target: T1, peroxidase; assay: Specificity for hydrogen donors prepared by combining MBTH with dimethylaniline, diethylaniline or EHMT; type: biochemical, Coprinus macrorhizus K-1330; conditions: hydrogen donor combined with MBTH; measured at 590 nm; 4-AA/phenol = 100
[4] = tested on: Coprinus macrorhizus K-1330 (FERM BP-648); assay: Effect of iron salts on the production of peroxidase; type: cell-based; conditions: culture filtrate, 26° C., 5 to 10 days
[5] = additive 1 mM, no addition = 100

O[C@H](CS)[C@H](O)CS (racemic) [Dithiothreitol]
activity at 1000 µM (peroxidase [1]; [5]): 95%

Oc1c(Cl)cc(Cl)cc1Cl [2,4,6-Trichlorophenol]
Relative activity (peroxidase [2]; measured at 520 nm): 96%

Oc1ccc(Br)cc1Br [2,4-Dibromophenol]
Relative activity (peroxidase [2]; measured at 520 nm): 47%

Oc1ccc(Cl)cc1Cl [2,4-Dichlorophenol]
Relative activity (peroxidase [2]; measured at 520 nm): 115%

Oc1c(Cl)cccc1Cl [2,6-Dichlorophenol]
Relative activity (peroxidase [2]; measured at 520 nm): 154%

[Ba+2].[Cl-].[Cl-] [BaCl2]
Relative activity (peroxidase [1]): 96%

[Cl-].[Cl-].[Co+2] [CoCl2]
Relative activity (peroxidase [1]): 98%

O=S(=O)([O-])[O-].[Cu+2] [CuSO4]
Relative activity (peroxidase [1]): 105%

CCN(CC)c1ccccc1 [Diethylaniline]
Relative activity (peroxidase [2]; measured at 550 nm): 49% | Relative activity (peroxidase [3]): 49%

CN(C)c1ccccc1 [Dimethylaniline]
Relative activity (peroxidase [2]; measured at 550 nm): 21% | Relative activity (peroxidase [3]): 50%

O=C(O)CN(CCN(CC(=O)O)CC(=O)O)CC(=O)O [EDTA]
activity at 1000 µM (peroxidase [1]): 97%

CCN(CCO)c1cccc(C)c1 [EHMT, N-ethyl-N-hydroxyethyl-m-toluidine]
Relative activity (peroxidase [2]; measured at 550 nm): 62% | Relative activity (peroxidase [3]): 41%

[Cl][Fe]([Cl])[Cl] [FeCl3]
Relative activity (peroxidase [1]): 107%

O.O.O.O.O.O.O.O=S(=O)([O-])[O-].[Fe+2] [FeSO4.7H2 O]
Peroxidase activity (maximum activity) ([4]; 0.04 % FeSO4.7H2O added to medium): 28.0 unit/ml | Peroxidase activity (maximum activity) ([4]; 0.08 % FeSO4.7H2O added to medium): 46.4 unit/ml | Peroxidase activity (maximum activity) ([4]; 0.12 % FeSO4.7H2O added to medium): 75.5 unit/ml | Peroxidase activity (maximum activity) ([4]; 0.16 % FeSO4.7H2O added to medium): 80.2 unit/ml | Peroxidase activity (maximum activity) ([4]; 0.20 % FeSO4.7H2O added to medium): 66.0 unit/ml | Peroxidase activity (maximum activity) ([4]; 0.24 % FeSO4.7H2O added to medium): 36.8 unit/ml | Peroxidase activity (maximum activity) ([4]; 0.32 % FeSO4.7H2O added to medium): 17.0 unit/ml

[Cl][Hg][Cl] [HgCl2]
Inhibition of the enzyme (peroxidase [1]): inhibited | Relative activity (peroxidase [1]): 6%

Oc1ccc(O)cc1 [Hydroquinone]
Relative activity (peroxidase [2]; measured at 500 nm): 10%

O=C(O)CI [Iodoacetic acid]
activity at 1000 µM (peroxidase [1]): 100%

N[C@@H](CS)C(=O)O [L-cysteine]
activity at 1000 µM (peroxidase [1]; [5]): 105%

[Cl][Mn][Cl] [MnCl2]
Relative activity (peroxidase [1]): 86%

O=S(=O)([O-])[O-].[Ni+2] [NiSO4]
Relative activity (peroxidase [1]): 92%

O=C(O)c1cc[c]([Hg][Cl])cc1 [PCMB, p-Chloromercuribenzoic acid]
Relative activity (peroxidase [1]): 98%

O=S(=O)(F)Cc1ccccc1 [PMSF, Phenylmethylsulfonyl fluoride]
Relative activity (peroxidase [1]): 98%

Oc1ccccc1 [Phenol]
Relative activity (peroxidase [2]; measured at 500 nm): 100%

Oc1ccccc1O [Pyrocatechol]
Relative activity (peroxidase [2]; measured at 500 nm): 58%

Oc1cccc(O)c1 [Resorcinol]
Relative activity (peroxidase [2]; measured at 500 nm): 10%

[Cl][Sn][Cl] [SnCl2]
Relative activity (peroxidase [1]): 92%

[N-]=[N+]=[N-] [Sodium azide]
Inhibition of the enzyme (peroxidase [1]): inhibited

[F-].[Na+] [Sodium fluoride]
Relative activity (peroxidase [1]): 103%

NC(N)=S [Thiourea]
Inhibition of the enzyme (peroxidase [1]): inhibited | activity at 1000 µM (peroxidase [1]): 57%

[Cl-].[Cl-].[Zn+2] [ZnCl2]
Relative activity (peroxidase [1]): 85%

c1cnc2c(c1)ccc1cccnc12 [o-Phenanthroline]
activity at 1000 µM (peroxidase [1]; [5]): 88%

c1ccc(-c2ccccn2)nc1 [α,α'-Dipyridyl]
activity at 1000 µM (peroxidase [1]): 103%

Oc1cccc2ccccc12 [α-Naphthol]
Relative activity (peroxidase [2]; measured at 500 nm): 18%
